Ki and inhibition data for eleven molecules are collected here from ChEMBL document CHEMBL1833852, “Design, synthesis, and X-ray crystallographic analysis of a novel class of HIV-1 protease inhibitors” (J Med Chem, 2011).

In general, Ki refers to a measure of affinity in units of concentration, obtained from inhibition or displacement.

Molecules are shown by their SMILES. Calls of active or inactive are those of the source. The calls are words filed in the database; no cut-off is given here.

Sequence of Protease (Human immunodeficiency virus 1) (Q9YQ12 as listed by the source): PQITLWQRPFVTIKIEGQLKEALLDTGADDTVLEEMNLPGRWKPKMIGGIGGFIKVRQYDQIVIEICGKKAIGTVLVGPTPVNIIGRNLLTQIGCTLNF

For the first experiment, the target named is Protease (Human immunodeficiency virus 1, UniProt Q9YQ12). Kind of experiment: (§1) Inhibition of Human immunodeficiency virus 1 protease activity after 60 mins by HPLC analysis.
Sequence of Protease (Q9YQ12 whole entry): as the sequence (Q9YQ12 as listed by the source) above
The molecule `CC(C)(C)OC(=O)N[C@@H](Cc1ccccc1)[C@H](O)CN1CCCc2ccccc2S1(=O)=O` showed an inhibitory constant (Ki) of 470 nM. In turn, `C=CCOC(=O)N[C@@H](Cc1ccccc1)[C@H](O)CN1C[C@@H](C)Cc2ccccc2S1(=O)=O` had an inhibition constant (Ki) of 27 nM. In turn, `C[C@H]1Cc2ccc(C(F)(F)F)cc2S(=O)(=O)N(C[C@@H](O)[C@H](Cc2ccccc2)NC(=O)OC(C)(C)C)C1` yielded an inhibition constant Ki of 100 nM. Regarding `C[C@H]1Cc2cc(C(F)(F)F)ccc2S(=O)(=O)N(C[C@@H](O)[C@H](Cc2ccccc2)NC(=O)OC(C)(C)C)C1`, the Ki turned out to be 186 nM. Same read-out and setting: the result for `CCOC(=O)NC(Cc1ccccc1)C(O)CN1C[C@@H](C)Cc2ccccc2S1(=O)=O` (single isomer, unassigned) reads 34 nM. Consider `C[C@H]1Cc2ccccc2S(=O)(=O)N(CC(O)C(Cc2ccccc2)NC(=O)OC(C)(C)C)C1` (single isomer, unassigned), for which the affinity corresponds to a Ki of 29 nM. As for `C[C@H]1Cc2cc(F)ccc2S(=O)(=O)N(CC(O)C(Cc2ccccc2)NC(=O)[C@@H]2CN(c3ccccc3)C(=O)O2)C1` (single isomer, unassigned), the affinity corresponds to a Ki of 30 nM. Same read-out and setting: the result for `COc1ccc2c(c1)C[C@H](C)CN(C[C@@H](O)[C@H](Cc1ccccc1)NC(=O)OC(C)(C)C)S2(=O)=O` reads 19 nM; that for `C[C@H]1Cc2ccccc2S(=O)(=O)N(CC(O)C(Cc2ccccc2)NC(=O)Oc2ccccc2)C1` (single isomer, unassigned), 350 nM. `C[C@@H]1Cc2ccccc2S(=O)(=O)N(CC(O)C(Cc2ccccc2)NC(=O)OC(C)(C)C)C1` (single isomer, unassigned): the inhibition constant (Ki) stood at 1000 nM.

Another experiment has as its target Protease (Human immunodeficiency virus 1) (UniProt Q9YQ12). The description is as §1.
As to `O=C1N[C@@H](Cc2ccccc2)[C@@H](CN2CCCc3ccccc3S2(=O)=O)O1`, the inhibition entry was “inactive”.
